Test results from patent US7880006B2, “Quinoline derivatives and insecticide comprising thereof as active ingredient” (Meiji Seika Kaisha, Ltd., priority 2004, dated 2011).

Columns and labels:
Tetranychus cinnabarinus = experiment: Miticidal effect against Tetranychus cinnabarinus (kidney leaf disk, eggs/larvae/nymphs); type: in vivo; conditions: Concentration 500 ppm; method of Test Example 4
Procedure: Miticidal Effect Against Tetranychus cinnabarinus
A kidney leaf disk having a diameter of 2 cm was placed on agar. Seven female adult mites of Tetranychus cinnabarinus were released on the kidney leaf disk. The female adult mites were allowed to oviposit in a chamber kept at a constant temperature (25° C.) for 24 hr. The female adult mites were then removed from the kidney leaf disk. Test compounds, which had been diluted to designated concentrations by the addition of a 50% aqueous acetone solution (Tween 20, 0.05%), were spread over the leaf disk by means of a spray gun, and the leaf disk was then air dried. Thereafter, the leaf disk was stored in a constant-temperature chamber of 25° C. […] The sum of the unhatching rate of eggs and the death rate of larva ticks/nymphs was determined as the total death rate.

Spodoptera litura = experiment: Pesticidal effect against Spodoptera litura (cabbage leaf disk spray); type: in vivo; conditions: Concentration 200 ppm; method of Test Example 2
Description: Pesticidal Effect Against Spodoptera litura
(§1) A cabbage leaf disk having a diameter of 5 cm was placed in a plastic cup. Test compounds, which had been diluted to designated concentrations by the addition of a 50% aqueous acetone solution (Tween 20, 0.05%), were spread over the cabbage leaf disk by means of a spray gun, and the cabbage leaf disk was then air dried. Five larvae at the third instar of Spodoptera litura were released in the cup. The cup was then lidded, and the larvae were reared in a chamber at a constant temperature (25° C.).

Myzus persicae = experiment: Pesticidal effect against Myzus persicae (cabbage leaf disk spray); type: in vivo; conditions: Concentration 500 ppm; method of Test Example 3
Description: Pesticidal Effect Against Myzus persicae
A cabbage leaf disk having a diameter of 2.8 cm was placed in a plastic schale. Test compounds, which had been diluted to designated concentrations by the addition of a 50% aqueous acetone solution (Tween 20, 0.05%), were spread over the cabbage leaf disk by means of a spray gun, and the cabbage leaf disk was then air dried. Thereafter, ten larvae at the first instar of Myzus persicae were released in the schale. The schale was then lidded, and the larvae were reared in a chamber at a constant temperature (25° C.).

Laodel phax striatellus = experiment: Control effect against Laodel phax striatellus (rice seedling spray); type: in vivo; conditions: Concentration 500 ppm; method of Test Example 5
Description: Control Effect Against Laodel phax striatellus
Test compounds, which had been diluted to designated concentrations by the addition of a 50% aqueous acetone solution (Tween 20, 0.05%), were spread over four rice seedlings (7 days after sowing) sowed in a plastic pot by means of a spray gun, followed by air drying. Thereafter, this pot was covered by a plastic cylinder, and ten larvae at the second instar of Laodel phax striatellus were released in the pot. The pot was then lidded, and the larvae were reared in a chamber at a constant temperature (25° C.).

Plutella xylostella = experiment: Pesticidal effect against Plutella xylostella (cabbage leaf disk spray); type: in vivo; conditions: Concentration 200 ppm; method of Test Example 1
Description: Pesticidal Effect Against Plutella xylostella
as §1, with “second” for “third”, “Plutella xylostella” for “Spodoptera litura”

Row | SMILES | melting point [°C] | Death rate, % Tetranychus cinnabarinus (Tetranychus cinnabarinus) [%] | Death rate, % Spodoptera litura (Spodoptera litura) [%] | Death rate, % Myzus persicae (Myzus persicae) [%] | Death rate, % Laodelphax striatellus (Laodel phax striatellus) [%] | Death rate, % Plutella xylostella (Plutella xylostella) [%]
1 | CC(=O)Oc1c(C)c(C)nc2ccc(Oc3ccc(Cl)cc3)c(Cl)c12 [Compound No. 2, 4-Acetoxy-5-chloro-6-(4-chlorophenoxy)-2,3-dimethyl-quinoline] | 167 to 169 | – | – | – | – | –
2 | CC(=O)Oc1c(C)c(C)nc2cc(Cl)c(Oc3ccc(Cl)cc3)cc12 [Compound No. 22, 4-acetoxy-7-chloro-6-(4-chlorophenoxy)-2,3-dimethyl-quinoline] | 160 to 162 | – | – | – | – | –
3 | CC(=O)Oc1c(C)c(C)nc2ccc(Oc3ccccc3)cc12 [WO 98055460 Compund No. 136] | – | 0 | 0 | 0 | 0 | 0
4 | COc1ccc2nc(C)c(C)c(OC(C)=O)c2c1 [JP 2633377 Compund No. 46] | – | 0 | 10 | 0 | 0 | 0
